Results reported in ChEMBL document CHEMBL1153661, “Antiviral optically pure dioxolane purine nucleosides analogues” (Bioorg Med Chem Lett, 1993).

What was measured:
[1] = Compound was tested for cytotoxicity against human peripheral blood mononuclear (PBM, LAV strain of HIV-l) cells; format: functional; conditions: read-out: CD50 (the source's name)
[2] = tested on: MT4; experiment: Compound was tested for cytotoxicity against MT-4 cells (MT-4, RF strain of HIV-1); format: functional; conditions: Homo sapiens, read-out: CD50 (the source's name)
[3] = Compound was tested for inhibitory activity against HIV in human peripheral blood mononuclear (PBM, LAV strain of HIV-l) cells; format: functional, cell-based
[4] = tested on: MT4; experiment: Compound was tested for inhibitory activity against HIV in whole cell assay (MT-4, RF strain of HIV-1 at a concentration up to […]); format: functional, cell-based; conditions: Homo sapiens
[5] = tested on: MT4; experiment: Compound was tested for cytotoxicity against MT-4 cells (MT-4, RF strain of HIV-1); Compound was found non cytotoxic; format: functional, cell-based; conditions: Homo sapiens
[6] = tested on: MT4; experiment: Compound was tested for inhibitory activity against HIV in whole cell assay (MT-4, RF strain of HIV-1 at a concentration up to […]); IA: Found inactive; format: functional, cell-based, Homo sapiens

| Compound | CC50 [1] [µM] | CC50 [2] [µM] | IC50 [3] [µM] | IC50 [4] [µM] | CD50 [5] | IC50 [6] |
| --- | --- | --- | --- | --- | --- | --- |
| Nc1nc2c(ncn2[C@H]2CO[C@@H](CO)O2)c(=O)[nH]1 | > 100 | > 425 | 0.03 | 10.7 |  |  |
| Nc1nc(O)c2ncn([C@@H]3CO[C@H](CO)O3)c2n1 |  |  |  |  | Non-toxic | Not Active |
